2 compounds from paper PMC6804243, “Small-Molecule Inhibition of UBE2T/FANCL-Mediated Ubiquitylation in the Fanconi Anemia Pathway” (ACS Chemical Biology, 2019) can be followed below.

Data set [1] can be described thus: Tolerance / cytotoxicity of compounds in U2OS cells. It is filed as cell-based. Conditions: human, u2os cells, 8 h assay, read-out: concentration above which cytotoxic. How it is done:
U2OS cells were treated with HU and the formation of mUb-FANCD2 in the presence of CU 1, CU2, and CU9 was evaluated relative to a DMSO control. Following a 1-h preincubation with the compounds, cells were treated with 2.5 mM of HU for 24 h. […] Accordingly, cells were treated with a higher concentration of compounds in further experiments.

In data set [2] the test system is UBE2T. The data set is described as follows: Binding to UBE2T by differential scanning fluorimetry, ligand-observed NMR, native mass spectrometry. Conditions: native mass spectrometry (unpublished data). In general terms: Differential scanning fluorimetry follows unfolding on heating by fluorescence.

SMILES strings stand for the structures.

Turning to `NCCN1C(=O)CC[C@H]2CN(Cc3cccc(-c4ccco4)c3)CC[C@H]21` [CU1], the MCC at 8 h in data set [1] is > 300 µM.
Turning to `CCN1CCN(c2cc(C)nc3nc(CN4CCCCC4C)nn23)CC1` (centres unmarked) [CU2], the “binding to UBE2T” value in data set [2] is on record as “did not observe binding”.
